Results reported in US8110193B2, “Methods for conditioning a subject for hematopoietic cell transplantation” (City of Hope, priority 2007, dated 2012).

How the values were obtained:
[1] = tested on: IL-2, IFN-γ, TNF-α, and IL-6; test: Cytokines in culture supernatant of anti-CD3-stimulated spleen cells (ELISA); type: cell-based, mouse (BALB/c); settings: 24, 48, 72 hours
Description: (§1) C. […] There were seven mice in each group.
One of the side effects of anti-CD3-conditioning is the cytokine storm triggered by anti-CD3 activation of T cells. […] After anti-CD3-stimulation, IL-2 concentration peaked at 48 hours, and IFN-γ, TNF-α, and IL-6 all peaked at 72 hours after culture.

[2] = tested on: IL-2, IFN-γ, TNF-α, and IL-6; test: Serum cytokines after anti-CD3 injection (cytokine storm); type: in vivo, mouse (BALB/c)
Description: as §1

host T cells = test: Apoptosis and yield of residual host T cells in spleen of conditioned mice; type: in vivo, mouse (BALB/c); settings: low-dose (40 or 100 μg/g) SAHA co-injected with anti-CD3
[3] = Body temperature and tolerability after anti-CD3 injection

## O=C(CCCCCCC(=O)Nc1ccccc1)NO [SAHA, suberoylanilide hydroxamic acid]
[1]; 0.5 μM SAHA
  IL-2, IFN-γ, TNF-α, IL-6 production in culture: reduced cytokine production significantly at all time points
[1]; 1 μM SAHA
  IL-2, IFN-γ, TNF-α, IL-6 production in culture: nearly undetectable
[2]; SAHA 40 μg/g co-injected with anti-CD3 5 μg/g
  reduction of serum IL-2, IFN-γ, TNF-α, IL-6 at peak time points vs anti-CD3 alone: more than 2 fold
[2]; SAHA 200 μg/g co-injected with anti-CD3, data not shown
  serum cytokine reduction compared to SAHA 40 μg/g: reductions in serum cytokine levels that were similar
Host T cells
  apoptosis of host T cells and yield of residual live T cells in spleen: did not significantly increase apoptosis of host T cells or reduce the yield of residual live T cells
[3]; SAHA 40 μg/g co-injected with anti-CD3
  hypothermia after anti-CD3 injection: significantly reduced hypothermia
[3]; SAHA 200 μg/g co-injected with anti-CD3
  adverse signs: severe diarrhea
[3]; SAHA 200 μg/g co-injected, five days after anti-CD3-conditioning
  mice that died: 30%
